The target of the assay is T1, P2X7 receptor (Homo sapiens, UniProt Q99572).
T1 construct: stably expressing the full length P2X7 receptor; expressed in transfected cells
T1 sequence (Q99572 1-595): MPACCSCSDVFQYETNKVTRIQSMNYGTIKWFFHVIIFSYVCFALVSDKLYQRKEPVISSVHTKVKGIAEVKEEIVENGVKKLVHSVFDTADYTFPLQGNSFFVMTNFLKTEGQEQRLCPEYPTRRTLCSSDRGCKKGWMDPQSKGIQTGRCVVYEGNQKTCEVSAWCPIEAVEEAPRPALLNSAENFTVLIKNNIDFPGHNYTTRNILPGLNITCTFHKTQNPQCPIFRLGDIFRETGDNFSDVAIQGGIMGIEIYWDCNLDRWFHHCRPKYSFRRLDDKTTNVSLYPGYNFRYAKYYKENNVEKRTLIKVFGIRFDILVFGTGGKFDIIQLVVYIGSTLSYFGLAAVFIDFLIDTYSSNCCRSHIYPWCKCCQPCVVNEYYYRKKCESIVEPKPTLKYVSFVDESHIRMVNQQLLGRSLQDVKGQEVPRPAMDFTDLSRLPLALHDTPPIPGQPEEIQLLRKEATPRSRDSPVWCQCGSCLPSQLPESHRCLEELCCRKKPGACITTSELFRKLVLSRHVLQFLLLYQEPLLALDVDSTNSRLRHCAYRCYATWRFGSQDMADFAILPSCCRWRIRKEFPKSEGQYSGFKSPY
Put plainly: Ca++ flux assay (FLIPR) in P2X7-HEK-293 cell line stably expressing the full length P2X7 receptor, Bz-ATP activation. As to conditions: P2X7-HEK-293 cells; agonist Bz-ATP; fluorescence as total area over 90 seconds; read-out: P2X7 Ca Flux hu IC50. Type of assay: cell-based. The method, boiled down:
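HEK-293 cells stably expressing full-length P2X7 were loaded with Ca++-sensitive dye for 1 h, with compound added during loading. Cells were stimulated with Bz-ATP on FLIPR. Fluorescence was integrated as total area over 90 s, and IC50 was taken as 50% inhibition of the maximal Ca++ response.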
On to `Cc1c(-n2ccn3c(S(=O)(=O)Cc4ccsc4Br)nnc3c2=O)cccc1C(F)(F)F` [Compound 125, 3-((2-bromothiophen-3-yl)methylsulfonyl)-7-(2-methyl-3-(trifluoromethyl)phenyl)-[1,2,4]triazolo[4,3-a]pyrazin-8(7H)-one], for which the IC50 worked out at 15.5 nM. For `Cc1c(-n2ccn3c(S(=O)(=O)Cc4ccccc4-c4ccccc4)nnc3c2=O)cccc1C(F)(F)F` [Compound 126] the value was 15.9 nM; for `O=c1c2nnc(S(=O)(=O)Cc3ccccc3)n2ccn1-c1cccc(C(F)(F)F)c1Cl` [Compound 127, 3-(benzylsulfonyl)-7-(2-chloro-3-(trifluoromethyl)phenyl)-[1,2,4]triazolo[4,3-a]pyrazin-8(7H)-one], 16.3 nM; for `Cc1c(Cl)cccc1-n1ccn2c(S(=O)(=O)Cc3ccccc3Br)nnc2c1=O` [Compound 128, 3-(2-bromobenzylsulfonyl)-7-(3-chloro-2-methylphenyl)-[1,2,4]triazolo[4,3-a]pyrazin-8(7H)-one], 16.9 nM. The figure for `Cc1c(-n2ccn3c(S(=O)(=O)Cc4ccccc4C(C)(C)C)nnc3c2=O)cccc1C(F)(F)F` [Compound 129, 3-(2-tert-butylbenzylsulfonyl)-7-(2-methyl-3-(trifluoromethyl)phenyl)-[1,2,4]triazolo[4,3-a]pyrazin-8(7H)-one] is 17 nM; for `Cc1c(Cl)cccc1-n1ccn2c(S(=O)(=O)Cc3cccc(F)c3Cl)nnc2c1=O` [Compound 130, 7-(3-chloro-2-methylphenyl)-3-(2-chloro-3-fluorobenzylsulfonyl)-[1,2,4]triazolo[4,3-a]pyrazin-8(7H)-one] it is 17.3 nM; for `Cc1c(-n2ccn3c(S(=O)(=O)Cc4ccccc4Br)nnc3c2=O)cccc1C(F)(F)F` [Compound 131, 3-(2-bromobenzylsulfonyl)-7-(2-methyl-3-(trifluoromethyl)phenyl)-[1,2,4]triazolo[4,3-a]pyrazin-8(7H)-one] it is 17.7 nM. Consider `Cc1c(-n2ccn3c(S(=O)(=O)Cc4ccc(Cl)s4)nnc3c2=O)cccc1C(F)(F)F` [Compound 132, 3-((5-chlorothiophen-2-yl)methylsulfonyl)-7-(2-methyl-3-(trifluoromethyl)phenyl)-[1,2,4]triazolo[4,3-a]pyrazin-8(7H)-one], for which the IC50 amounted to 17.9 nM.

As to `Cc1c(-n2ccn3c(S(=O)(=O)Cc4ccccc4I)nnc3c2=O)cccc1C(F)(F)F` [Compound 133, 3-(2-iodobenzylsulfonyl)-7-(2-methyl-3-(trifluoromethyl)phenyl)-[1,2,4]triazolo[4,3-a]pyrazin-8(7H)-one], the IC50 was 21.4 nM. As to `Cc1c(Cl)cccc1-n1ccn2c(S(=O)(=O)Cc3ccccc3Cl)nnc2c1=O` [Compound 134, 7-(3-chloro-2-methylphenyl)-3-(2-chlorobenzylsulfonyl)-[1,2,4]triazolo[4,3-a]pyrazin-8(7H)-one], the IC50 amounted to 23.2 nM. The figure for `[2H]c1c([2H])c([2H])c(CS(=O)(=O)c2nnc3c(=O)n(-c4cccc(C(F)(F)F)c4C)ccn23)c([2H])c1[2H]` [Compound 135, deuterated-7-[2-methyl-3-(trifluoromethyl)phenyl]-3-[(phenyl-(d5)-methyl)sulfonyl]-1,2,4-triazolo[4,3-a]pyrazin-8(7H)-one] is 23.3 nM; for `Cc1c(Cl)cccc1-n1ccn2c(S(=O)(=O)Cc3ccccc3C(C)(C)C)nnc2c1=O` [Compound 136, 3-(2-tert-butylbenzylsulfonyl)-7-(3-chloro-2-methylphenyl)-[1,2,4]triazolo[4,3-a]pyrazin-8(7H)-one] it is 26.9 nM.

As to `Cc1cccc(-c2ccccc2CS(=O)(=O)c2nnc3c(=O)n(-c4cccc(C(F)(F)F)c4C)ccn23)c1` [Compound 137], the IC50 stood at 30.4 nM. With `Cc1c(-n2ccn3c(S(=O)(=O)Cc4ccccc4-c4ccc(F)cc4)nnc3c2=O)cccc1C(F)(F)F` [Compound 138, 3-((4′-fluorobiphenyl-2-yl)methylsulfonyl)-7-(2-methyl-3-(trifluoromethyl)phenyl)-[1,2,4]triazolo[4,3-a]pyrazin-8(7H)-one], the half-maximal inhibitory concentration (IC50) is 30.8 nM.

The record behind these values is patent publication US20130196986A1 (priority 2010, published 2013).
